Tests used:
[1] = tested on: Puccinia recondita f. Sp. Tritici; experiment: Puccinia recondita f. sp. tritici / wheat / leaf disc preventative (brown rust); format: in vivo; settings: foliar, 200 ppm in the applied formulation, wheat leaf segments cv. Kanzler, preventative (inoculated 1 day after application), compared to untreated, read-out: disease control
Protocol: Leaf disks or leaf segments of various plant species are cut from plants grown in a greenhouse. The cut leaf disks or segments are placed in multiwell plates (24-well format) onto water agar. The leaf disks are sprayed with a test solution before (preventative) or after (curative) inoculation. Compounds to be tested are prepared as DMSO solutions (max. 10 mg/ml) which are diluted to the appropriate concentration with 0.025% Tween20 just before spraying. The inoculated leaf disks or segments are incubated under defined conditions (temperature, relative humidity, light, etc.) according to the respective test system. A single evaluation of disease level is carried out 3 to 14 days after inoculation, depending on the pathosystem. Percent disease control relative to the untreated check leaf disks or segments is then calculated. Wheat leaf segments cv. Kanzler were placed on agar in multiwell plates (24-well format) and sprayed with the formulated test compound diluted in water. The leaf disks were inoculated with a spore suspension of the fungus 1 day after application. The inoculated leaf segments were incubated at 19° C. and 75% relative humidity (rh) under a light regime of 12 hours light/12 hours darkness in a climate cabinet and the activity of a compound was assessed as percent disease control compared to untreated when an appropriate level of disease damage appears in untreated check leaf segments (7 to 9 days after application). The following compounds at 200 ppm in the applied formulation give at least 80% disease control in this test when compared to untreated control leaf disks under the same conditions, which show extensive disease development.

[2] = tested on: Puccinia recondita f. Sp. Tritici; experiment: Puccinia recondita f. sp. tritici / wheat / leaf disc curative (brown rust); format: in vivo; settings: foliar, 24 h, 200 ppm in the applied formulation, wheat leaf segments cv. Kanzler, curative (applied 1 day after inoculation), compared to untreated, read-out: disease control
Protocol: Leaf disks or leaf segments of various plant species are cut from plants grown in a greenhouse. The cut leaf disks or segments are placed in multiwell plates (24-well format) onto water agar. The leaf disks are sprayed with a test solution before (preventative) or after (curative) inoculation. Compounds to be tested are prepared as DMSO solutions (max. 10 mg/ml) which are diluted to the appropriate concentration with 0.025% Tween20 just before spraying. The inoculated leaf disks or segments are incubated under defined conditions (temperature, relative humidity, light, etc.) according to the respective test system. A single evaluation of disease level is carried out 3 to 14 days after inoculation, depending on the pathosystem. Percent disease control relative to the untreated check leaf disks or segments is then calculated.
Wheat leaf segments cv. Kanzler are placed on agar in multiwell plates (24-well format). The leaf segments are then inoculated with a spore suspension of the fungus. Plates were stored in darkness at 19° C. and 75% relative humidity. The formulated test compound diluted in water was applied 1 day after inoculation. The leaf segments were incubated at 19° C. and 75% relative humidity under a light regime of 12 hours light/12 hours darkness in a climate cabinet and the activity of a compound was assessed as percent disease control compared to untreated when an appropriate level of disease damage appears in untreated check leaf segments (6 to 8 days after application).
The following compounds at 200 ppm in the applied formulation give at least 80% disease control in this test when compared to untreated control leaf disks under the same conditions, which show extensive disease development.

[3] = tested on: Glomerella lacenarium (Colletotrichum lagenarium); experiment: Glomerella lagenarium liquid culture / cucumber / preventative (anthracnose); format: cell-based; settings: Colletotrichum orbiculare; 20 ppm in the applied formulation; liquid culture (PDB), growth inhibition measured photometrically 3 to 4 days after application; compared to untreated; read-out: disease control
Protocol: Mycelia fragments or conidia suspensions of a fungus prepared either freshly from liquid cultures of the fungus or from cryogenic storage, are directly mixed into nutrient broth. DMSO solutions of the test compound (max. 10 mg/ml) are diluted with 0.025% Tween20 by a factor of 50 and 10 μl of this solution is pipetted into a microtiter plate (96-well format). The nutrient broth containing the fungal spores/mycelia fragments is then added to give an end concentration of the tested compound. The test plates are incubated in the dark at 24° C. and 96% relative humidity. The inhibition of fungal growth is determined photometrically after 2 to 7 days, depending on the pathosystem, and percent antifungal activity relative to the untreated check is calculated.
Conidia of the fungus from cryogenic storage are directly mixed into nutrient broth (PDB—potato dextrose broth). After placing a (DMSO) solution of test compound into a microtiter plate (96-well format), the nutrient broth containing the fungal spores is added.
The following compounds at 20 ppm in the applied formulation give at least 80% disease control in this test when compared to untreated control under the same conditions, which show extensive disease development.

SMILES | pest or weed control at 200 ppm [1] | pest or weed control at 200 ppm [2] | inhibition of growth at 20 ppm [3]
COCCC(=O)NCc1ccc(-c2noc(C(F)(F)F)n2)cc1F [Compound 1.37, N-[[2-fluoro-4-[5-(trifluoromethyl)-1,2,4-oxadiazol-3-yl]phenyl]methyl]-3-methoxy-propanamide] | ≥ 80% | ≥ 80% | ≥ 80%
COCCCC(=O)NCc1ccc(-c2noc(C(F)(F)F)n2)c(F)c1 [Compound 1.40, N-[[3-fluoro-4-[5-(trifluoromethyl)-1,2,4-oxadiazol-3-yl]phenyl]methyl]-4-methoxy-butanamide] | ≥ 80% | ≥ 80% | ≥ 80%
COCCCC(=O)NCc1ccc(-c2noc(C(F)(F)F)n2)cc1F [Compound 1.42, N-[[2-fluoro-4-[5-(trifluoromethyl)-1,2,4-oxadiazol-3-yl]phenyl]methyl]-4-methoxy-butanamide] | ≥ 80% | ≥ 80% | ≥ 80%
N#CCC(=O)NCc1ccc(-c2noc(C(F)(F)F)n2)c(F)c1 [Compound 1.43, 2-cyano-N-[[3-fluoro-4-[5-(trifluoromethyl)-1,2,4-oxadiazol-3-yl]phenyl]methyl]acetamide] | ≥ 80% | ≥ 80% | ≥ 80%
N#CCC(=O)NCc1ccc(-c2noc(C(F)(F)F)n2)cc1F [Compound 1.45, 2-cyano-N-[[2-fluoro-4-[5-(trifluoromethyl)-1,2,4-oxadiazol-3-yl]phenyl]methyl]acetamide] | ≥ 80% | ≥ 80% | ≥ 80%
CC(C)C(=O)NCc1ccc(-c2noc(C(F)(F)F)n2)cc1Cl [Compound 1.50, N-[[2-chloro-4-[5-(trifluoromethyl)-1,2,4-oxadiazol-3-yl]phenyl]methyl]-2-methyl-propanamide] | – | – | ≥ 80%
CCCC(=O)NCc1ccc(-c2noc(C(F)(F)F)n2)cc1Cl [Compound 1.52, N-[[2-chloro-4-[5-(trifiuoromethyl)-1,2,4-oxadiazol-3-yl]phenyl]methyl]butanamide] | – | – | ≥ 80%
COCCC(=O)NCc1ccc(-c2noc(C(F)(F)F)n2)c(F)c1F [Compound 1.53, N-[[2,3-difluoro-4-[5-(trifluoromethyl)-1,2,4-oxadiazol-3-yl]phenyl]methyl]-3-methoxy-propanamide] | ≥ 80% | ≥ 80% | ≥ 80%
COCCC(=O)NCc1ccc(-c2noc(C(F)(F)F)n2)cc1Cl [Compound 1.55, N-[[2-chloro-4-[5-(trifluoromethyl)-1,2,4-oxadiazol-3-yl]phenyl]methyl]-3-methoxy-propanamide] | – | – | ≥ 80%
COCC(=O)NCc1ccc(-c2noc(C(F)(F)F)n2)cc1Cl [Compound 1.57, N-[[2-chloro-4-[5-(trifluoromethyl)-1,2,4-oxadiazol-3-yl]phenyl]methyl]-2-methoxy-acetamide] | – | ≥ 80% | ≥ 80%
CCC(C)C(=O)NCc1ccc(-c2noc(C(F)(F)F)n2)cc1Cl (stereo not shown) [Compound 1.58, N-[[2-chloro-4-[5-(trifluoromethyl)-1,2,4-oxadiazol-3-yl]phenyl]methyl]-2-methyl-butanamide] | – | – | ≥ 80%
COCCCC(=O)NCc1ccc(-c2noc(C(F)(F)F)n2)cc1Cl [Compound 1.60, N-[[2-chloro-4-[5-(trifluoromethyl)-1,2,4-oxadiazol-3-yl]phenyl]methyl]-4-methoxy-butanamide] | ≥ 80% | ≥ 80% | ≥ 80%
COCCCC(=O)NCc1ccc(-c2noc(C(F)(F)F)n2)c(F)c1F [Compound 1.61, N-[[2,3-difluoro-4-[5-(trifluoromethyl)-1,2,4-oxadiazol-3-yl]phenyl]methyl]-4-methoxy-butanamide] | ≥ 80% | ≥ 80% | ≥ 80%
N#CCC(=O)NCc1ccc(-c2noc(C(F)(F)F)n2)c(F)c1F [Compound 1.62, 2-cyano-N-[[2,3-difluoro-4-[5-(trifluoromethyl)-1,2,4-oxadiazol-3-yl]phenyl]methyl]acetamide] | ≥ 80% | ≥ 80% | ≥ 80%
CC(=O)NCc1ccc(-c2noc(C(F)(F)F)n2)cc1Cl [Compound 1.64, N-[[2-chloro-4-[5-(trifluoromethyl)-1,2,4-oxadiazol-3-yl]phenyl]methyl]acetamide] | ≥ 80% | – | ≥ 80%
COCC(=O)NCc1ccc(-c2noc(C(F)(F)F)n2)cc1C(F)(F)F [Compound 1.70, 2-methoxy-N-[[2-(trifluoromethyl)-4-[5-(trifiuoromethyl)-1,2,4-oxadiazol-3-yl]phenyl]methyl]acetamide] | – | – | ≥ 80%
N#CCC(=O)NCc1ccc(-c2noc(C(F)(F)F)n2)cn1 [Compound 1.73, 2-cyano-N-[[5-[5-(trifluoromethyl)-1,2,4-oxadiazol-3-yl]-2-pyridyl]methyl]acetamide] | – | ≥ 80% | ≥ 80%
CCCCCOC(=O)NCc1ccc(-c2noc(C(F)(F)F)n2)cc1 [Compound 2.9, pentyl N-[[4-[5-(trifluoromethyl)-1,2,4-oxadiazol-3-yl]phenyl]methyl]carbamate] | ≥ 80% | – | –
CCCCCOC(=O)NCc1ccc(-c2noc(C(F)(F)F)n2)cn1 [Compound 2.23, pentyl N-[[5-[5-(trifluoromethyl)-1,2,4-oxadiazol-3-yl]-2-pyridyl]methyl]carbamate] | ≥ 80% | – | ≥ 80%
CC(C)(C)COC(=O)NCc1ccc(-c2noc(C(F)(F)F)n2)cn1 [Compound 2.34, 2,2-dimethylpropyl N-[[5-[5-(trifluoromethyl)-1,2,4-oxadiazol-3-yl]-2-pyridyl]methyl]carbamate] | – | ≥ 80% | ≥ 80%
CC(C)(C)CNC(=O)NCc1ccc(-c2noc(C(F)(F)F)n2)cc1 [Compound 3.8, 1-(2,2-dimethylpropyl)-3-[[4-[5-(trifluoromethyl)-1,2,4-oxadiazol-3-yl]phenyl]methyl]urea] | ≥ 80% | – | –
CC(C)CNC(=O)NCc1ccc(-c2noc(C(F)(F)F)n2)cc1 [Compound 3.11, 1-isobutyl-3-[[4-[5-(trifluoromethyl)-1,2,4-oxadiazol-3-yl]phenyl]methyl]urea] | ≥ 80% | – | ≥ 80%
O=C(NCCCCl)NCc1ccc(-c2noc(C(F)(F)F)n2)cn1 [Compound 3.19] | ≥ 80% | – | –
CCCCNC(=O)NCc1ccc(-c2noc(C(F)(F)F)n2)cn1 [Compound 3.20, 1-butyl-3-[[5-[5-(trifluoromethyl)-1,2,4-oxadiazol-3-yl]-2-pyridyl]methyl]urea] | ≥ 80% | – | ≥ 80%
